According to patent US4849207A, “Porphyrin derivatives” (Nihon Medi-Physics Co., Ltd., priority 1985, dated 1989):

Test system: cancer cells of the pancreas
Assay: Laser irradiation to an extracted organ (excited fluorescent spectrum)
Type: in vivo, golden hamsters
Details: golden hamster, 5 mg i.v., after 24 hours
Protocol: Laser irradiation to an extracted organ (excited fluorescent spectrum):
To each of golden hamsters (five animals being grouped) transplaned with nitrosoamine-induced cancer cells of the pancreas, DTPA-10EG PPB-Me (5 mg) diluted with 0.1M citrate buffer (1 ml) was administered intravenously 14 to 21 days after the transplantation, and cancer cells and other organs were extracted. To each of the organs as extracted, N2 -pulsed laser (N2 337 nm, 2 ns 400-1000 nm) was irradiated, and excited fluorescent spectrum was measured after 24 hours. Taking the peak wavelength of NADH at 470 nm as the standard (i.e. 1), the wavelength at 600 to 900 nm was calculated. The results are shown in Table 1, from which it is understood that a porphyrin-related substance has a remarkably selective affinity to cancer cells.

| Compound | excited fluorescence at 600 to 900 nm relative to NADH peak at 470 nm (=1): Cancer | excited fluorescence at 600 to 900 nm relative to NADH peak at 470 nm (=1): Kidney | excited fluorescence at 600 to 900 nm relative to NADH peak at 470 nm (=1): Liver | excited fluorescence at 600 to 900 nm relative to NADH peak at 470 nm (=1): Serum | excited fluorescence at 600 to 900 nm relative to NADH peak at 470 nm (=1): Lung |
| --- | --- | --- | --- | --- | --- |
| 2,4-Bis[1-(In-diethylenetriamine-tetraacetic acid-acetyloxyethane)oxyethyl] Ga-deuteroporphyrin [In--bisDTPA--EG Ga--DP] | 0.40 | 0.10 | 0.18 | 0.03 | – |
| 2,4-Bis[1-(In-diethylenetriamine-tetraacetic acid-acetyloxyethane)oxyethyl] In-deuteroporphyrin [In--bisDTPA--EG In--DP] | 0.00 | 0.05 | 0.25 | 0.05 | 0.05 |
| 2-[1-(In-Diethylenetriamine-tetraacetic acid-acetyloxyethane)oxyethyl]-4-[1-(2-hydroxyethyl)oxyethyl] Ga-deuteroporphyrin [In--monoDTPA--EG Ga--DP] | 0.50 | 0.05 | 0.03 | 0.02 | 0.14 |
| 2-[1-(In-Diethylenetriamine-tetraacetic acid-acetyloxyethane)oxyethyl]-4-[1-(2-hydroxyethyl)oxyethyl] In-deuteroporphyrin [In--monoDTPA--EG In--DP] | 0.30 | 0.00 | 0.07 | 0.24 | 0.09 |
| 2-[1-(In-Diethylenetriamine-tetraacetic acid-acetyloxyethane)oxyethyl]-4-[1-(2-hydroxyethyl)oxyethyl] deuteroporphyrin dimethyl ester [In--DTPA--EG DP--Me] | 0.83 | 0.15 | 0.36 | 0.71 | 0.09 |
| C=Cc1c(C)c2cc3nc(c4c5[nH]c(cc6nc(cc1[nH]2)C(C)=C6CC)c(C)c5C(=O)C4C(=O)OC)C(CCC(=O)OCCOC(=O)CN(CCN(CCN(CC(=O)O)CC(=O)O)CC(=O)O)CC(=O)O)C3C (stereo not shown) [DTPA--7EG PPB, Ethylene glycol mono-diethylenetriaminetetraacetic acid-acetate mono-7c-pheophorbate] | 0.53 | 0.32 | 0.33 | 0.31 | 0.30 |
| C=Cc1c(C)c2cc3nc(c4c5[nH]c(cc6nc(cc1[nH]2)C(C)=C6CC)c(C)c5C(=O)C4)C(CCC(=O)OCCOC(=O)CN(CCN(CCN(CC(=O)O)CC(=O)O)CC(=O)O)CC(=O)O)C3C (stereo not shown) [DTPA--7EG pyroPPB, Ethylene glycol mono-diethylenetriaminetetraacetic acid-acetate mono-7c-pyropheophorbate] | 2.20 | 0.25 | 0.87 | 0.39 | 1.23 |
